The target in this test is T1, soluble epoxide hydrolase (sEH, EPHX2) (Homo sapiens, UniProt P34913).
T1 sequence (P34913 1-555): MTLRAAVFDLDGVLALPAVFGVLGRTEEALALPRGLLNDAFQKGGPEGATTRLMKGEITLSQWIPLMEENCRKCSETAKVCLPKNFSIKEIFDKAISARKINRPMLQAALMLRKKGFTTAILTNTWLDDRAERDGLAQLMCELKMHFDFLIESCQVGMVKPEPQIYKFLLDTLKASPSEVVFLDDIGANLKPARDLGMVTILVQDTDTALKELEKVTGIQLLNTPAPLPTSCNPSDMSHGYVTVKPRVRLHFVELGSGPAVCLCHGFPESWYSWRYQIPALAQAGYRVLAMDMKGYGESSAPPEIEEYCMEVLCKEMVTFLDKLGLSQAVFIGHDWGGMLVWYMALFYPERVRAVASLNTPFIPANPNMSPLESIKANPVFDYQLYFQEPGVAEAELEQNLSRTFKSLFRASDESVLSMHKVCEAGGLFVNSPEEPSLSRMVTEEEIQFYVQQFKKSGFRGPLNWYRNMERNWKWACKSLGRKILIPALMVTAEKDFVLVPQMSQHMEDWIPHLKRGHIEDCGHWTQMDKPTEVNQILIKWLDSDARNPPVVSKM
Nature of the test: fluorescent kinetic enzyme assay (off-DNA hit resynthesised after DECL selection). Type of test: biochemical.

In turn, `Cc1cccc(CCNC(=O)c2ccc(F)c(CN(C)Cc3cc(C(=O)NCCc4cccc(C)c4)ccc3F)c2)c1` [compound 5, 5] displayed an inhibition constant Ki of 9 ± 2 nM.

(Values after publication PMC6706801, “Palladium-Catalyzed Hydroxycarbonylation of (Hetero)aryl Halides for DNA-Encoded Chemical Library Synthesis” (Bioconjugate Chemistry, 2019).)
